Test results reported in article PMC10033812, “Imaging the TGFβ type I receptor in pulmonary arterial hypertension” (EJNMMI Research, 2023).

Legend:
ALK5 [1] = target: T1, ALK5 (Rattus norvegicus, UniProt P80204); test: Autoradiography on control, MCT- and SuHx-exposed rat lung sections; assay type: binding; conditions: for Binding to MCT-exposed lungs compared with control lungs: MCT-exposed lungs (Wistar) vs healthy lungs normalized to 100%; for Binding to MCT-exposed lungs compared with control lungs / Binding to SuHx-exposed lungs compared with control lungs: n = 3; for Binding to SuHx-exposed lungs compared with control lungs: SuHx-exposed lungs (S.D.) vs healthy lungs normalized to 100%
T1 sequence (P80204 30-501): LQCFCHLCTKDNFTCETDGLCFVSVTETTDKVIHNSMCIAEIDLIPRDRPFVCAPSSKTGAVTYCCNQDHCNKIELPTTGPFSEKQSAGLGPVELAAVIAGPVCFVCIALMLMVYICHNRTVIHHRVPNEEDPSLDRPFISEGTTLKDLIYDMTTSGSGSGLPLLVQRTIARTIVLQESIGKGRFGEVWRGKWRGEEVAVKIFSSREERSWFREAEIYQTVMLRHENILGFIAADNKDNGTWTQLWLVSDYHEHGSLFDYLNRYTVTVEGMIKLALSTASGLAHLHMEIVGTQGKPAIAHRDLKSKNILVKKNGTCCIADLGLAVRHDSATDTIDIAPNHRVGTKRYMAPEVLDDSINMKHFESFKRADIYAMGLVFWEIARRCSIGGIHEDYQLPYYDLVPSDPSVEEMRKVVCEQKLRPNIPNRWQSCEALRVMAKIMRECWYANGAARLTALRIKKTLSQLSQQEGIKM
Procedure: Sections of 10 μm thickness were cut using a Cryostat ([…]) and thaw mounted on Thermo Scientific Superfrost plus adhesion slides. The sections were stored at- 20 °C until further handling. Tissue sections were defrosted, washed three times for 5 min with 5 mM Tris HCl buffer, pH 7.4 and dried in a cold stream of air. […] Sigma-Aldrich, Zwijndrecht, The Netherlands). The sections were washed in cold 5 mM Tris HCl buffer, pH 7.4, (three times 1 min) followed by a dip in ice cold water. […] Screens were developed on a Typhoon FLA 7000 phosphor imager (GE Healthcare lifescience, Buckinghamshire, UK) and analysed using Image Quant TL v8.1.0.0 (GE Healthcare lifescience, Buckinghamshire, UK). […] Statistical analysis was performed using Graphpad PRISM (v 5.02, Graphpad Software Inc). Tracer uptake in the tissue was compared with tracer uptake co-administered with SB431542 by using a one-tailed unpaired t-test. Differences were considered significant if p < 0.05. Adjacent tissue sections were used for autoradiography experiments.

[2] = Ex vivo biodistribution study in healthy male Wistar rats; set-up: species or system rat; conditions: i.v., ± SEM; for Retention in healthy lung tissue: 15 min p.i., n = 4
Procedure: A biodistribution study and metabolite analysis was carried out in healthy male Wistar rats (214 ± 15 g, Charles River, Germany). Rats were injected with 21 ± 15 MBq of [^11C]LR111 in the tail vein under isoflurane anaesthesia (2% in O2 at 1 L min^−1). Rats were sacrificed under similar isoflurane anaesthesia by exsanguination and dissected at 5, 15, 30 and 60 min post injection (p.i.) (n = 4 per time point). Rats were injected with 14 ± 5 MBq [^18F]EW-7197 in the tail vein under isoflurane anaesthesia (2% in O2 at 1 L min^−1). Rats were sacrificed under similar isoflurane anaesthesia by exsanguination and dissected at 5, 15, 30 and 45 min post injection (p.i.) (n = 4 per time point). Blood, heart, lungs, liver, kidneys, urine, bone and brain were collected, weighed and counted for radioactivity (Wallac 1210 Compugamma, PerkinElmer, Waltham, MA, USA). Biodistribution data were expressed as percentage injected dose per gram tissue (%ID·g^−1) ± standard error of the mean (SEM). Blood at 15 min and 60 min p.i. ([^11C]LR111) and blood at 15 min and 45 min p.i. ([^18F]EW-7197), withdrawn from the abdominal aorta, (~ 7 mL) was collected in a heparin coated tube and centrifuged at 5000 rpm to separate plasma from blood cells (Hettich universal 32, Andreas Hettich GmbH & Co. KG, Tuttlingen, Germany). […] Fractions were counted for radioactivity (Wallac 1210 Compugamma, PerkinElmer, Waltham, MA, USA). The percentage of intact tracer in the non-polar fraction was determined by online HPLC analysis on a Dionex (Sunnyvale, CA, USA) UltiMate 3000 HPLC equipment with Chromeleon software (version 6.8) equipped with a Gemini C18 column (5 μm, 10 × 250 mm, Phenomenex, Torrance, CA, USA) with a mixture of MeCN (A) and 0.1% TFA in water (B) as eluent according to the following scheme 0 min: 90% B; 12 min 15% B; 8 min 90% B at 3.5 mL.min^−1 [^11C]LR111 Rt = 10.7 min and [^18F]EW-7197 Rt = 9.2 min. Results were expressed as percentage of intact tracer, polar metabolites and non-polar metabolites ± SEM (n = 4 for each time point).

[3] = Ex vivo metabolite analysis in rat blood plasma (SPE/HPLC); conditions: for Intact tracer: rat blood plasma, ± SEM, n = 4; for In vivo metabolic stability in rats: in words
Procedure: A biodistribution study and metabolite analysis was carried out in healthy male Wistar rats (214 ± 15 g, Charles River, Germany). Rats were injected with 21 ± 15 MBq of [^11C]LR111 in the tail vein under isoflurane anaesthesia (2% in O2 at 1 L min^−1). Rats were sacrificed under similar isoflurane anaesthesia by exsanguination and dissected at 5, 15, 30 and 60 min post injection (p.i.) (n = 4 per time point). Rats were injected with 14 ± 5 MBq [^18F]EW-7197 in the tail vein under isoflurane anaesthesia (2% in O2 at 1 L min^−1). Rats were sacrificed under similar isoflurane anaesthesia by exsanguination and dissected at 5, 15, 30 and 45 min post injection (p.i.) (n = 4 per time point). Blood, heart, lungs, liver, kidneys, urine, bone and brain were collected, weighed and counted for radioactivity (Wallac 1210 Compugamma, PerkinElmer, Waltham, MA, USA). Biodistribution data were expressed as percentage injected dose per gram tissue (%ID·g^−1) ± standard error of the mean (SEM). Blood at 15 min and 60 min p.i. ([^11C]LR111) and blood at 15 min and 45 min p.i. ([^18F]EW-7197), withdrawn from the abdominal aorta, (~ 7 mL) was collected in a heparin coated tube and centrifuged at 5000 rpm to separate plasma from blood cells (Hettich universal 32, Andreas Hettich GmbH & Co. KG, Tuttlingen, Germany). Solid phase extraction (SPE) cartridges (tC2, Waters, Ettenleur, The Netherlands) were preconditioned by washing with 6 mL MeOH and 2 × 6 mL H2O. Plasma (1 mL) was mixed with 6.0 M HCl (50 µL) and loaded on the SPE cartridge (> 99% recovery). The polar metabolite fraction was obtained by eluting the SPE cartridge with H2O (3 mL), the non-polar fraction by subsequent elution with MeOH (2 mL) and H2O (1 mL). Fractions were counted for radioactivity (Wallac 1210 Compugamma, PerkinElmer, Waltham, MA, USA). The percentage of intact tracer in the non-polar fraction was determined by online HPLC analysis on a Dionex (Sunnyvale, CA, USA) UltiMate 3000 HPLC equipment with Chromeleon software (version 6.8) equipped with a Gemini C18 column (5 μm, 10 × 250 mm, Phenomenex, Torrance, CA, USA) with a mixture of MeCN (A) and 0.1% TFA in water (B) as eluent according to the following scheme 0 min: 90% B; 12 min 15% B; 8 min 90% B at 3.5 mL.min^−1 [^11C]LR111 Rt = 10.7 min and [^18F]EW-7197 Rt = 9.2 min. Results were expressed as percentage of intact tracer, polar metabolites and non-polar metabolites ± SEM (n = 4 for each time point).

ALK5 [4] = target: T1, ALK5; test: Dynamic PET imaging of lung uptake in control, MCT- and SuHx-exposed rats; assay type: in vivo; conditions: for Difference in lung uptake between control group and diseased animals after 15 min: after 15 min p.i.
Procedure: Dynamic PET imaging was performed with NanoPET/CT and nanoPET/MR 1 T scanners (Mediso Ltd., Hungary, Budapest) with identical PET components. All injections were performed via a tail vein catheter. […] Rats were positioned on the scanner bed and the respiratory rate was monitored for the duration of the experiment, adjusting anaesthesia when required. Animals first underwent a computed tomography (CT) or magnetic resonance imaging (MRI) scan to keep the isoflurane exposure as low as possible (see Fig. 2 for the set-up of the experiment). […] Dynamic PET scans, starting at the time of tracer administration, were acquired for 60 min. […] At day 2, all animals received SB431542 30 min prior the injection of [^11C]LR111. In addition, the control group received a cyclosporine A (Sigma-Aldrich, Zwijndrecht, The Netherlands) injection at day 3, 30 min prior to the injection of [^11C]LR111. Finally, at day 4, SB431542 and cyclosporine A injections were administered 30 min prior to the injection of [^11C]LR111. After these scanning experiments, the animals were sacrificed by cervical dislocation. Lung tissues were removed from MCT (n = 3), SuHx (n = 3) and healthy rats (n = 3). They were filled with 50% Tissue-Tek (VWR, Amsterdam, The Netherlands) and 50% physiological salt and snap frozen in liquid nitrogen. Positron emission scans were acquired in list mode and rebinned into the following frame sequence: 4 × 5, 4 × 10, 2 × 30, 3 × 60, 2 × 300, 1 × 600, 1 × 900 and 1 × 1200 s. The scans were reconstructed with a spatial resolution of 0.4 mm and were corrected for attenuation and scatter. The scans of the first 30 s were combined to correct for injection speed differences. Images were analysed using the freely available software AMIDE, version 1.0.4 (http://amide.sourceforge.net/). […] Uptake was expressed as standard uptake values (SUV), which was calculated according to the following equation: SUV=%uptake of the total tracer dose/volume of the region of interest/bodyweight Error bars indicate standard deviation. Statistical analysis was performed using Graphpad PRISM (v 5.02, Graphpad Software Inc). Lung uptake in the control group was compared with uptake in the diseased animals with a one-tailed unpaired t-test. Differences were considered significant if p < 0.05. The representative PET images were generated using VivoQuant2020.

P-gp = test: PET imaging after cyclosporine A (efflux pump inhibitor) in healthy rats; assay type: in vivo, rat; conditions: increased lung uptake in healthy rats after cyclosporine A
Procedure: Dynamic PET imaging was performed with NanoPET/CT and nanoPET/MR 1 T scanners (Mediso Ltd., Hungary, Budapest) with identical PET components. All injections were performed via a tail vein catheter. […] Rats were positioned on the scanner bed and the respiratory rate was monitored for the duration of the experiment, adjusting anaesthesia when required. Animals first underwent a computed tomography (CT) or magnetic resonance imaging (MRI) scan to keep the isoflurane exposure as low as possible (see Fig. 2 for the set-up of the experiment). All tracer injections were performed via a tail vein catheter using 4 and 2% isoflurane in 1 L min^−1 oxygen for induction and maintenance, respectively (see Table 1 for animal weights and injected doses). Dynamic PET scans, starting at the time of tracer administration, were acquired for 60 min. Immediately after the [^11C]LR111 scan, a bolus injection of [^18F]EW-7197 was administered, in order to minimize the time that rats were exposed to isoflurane, and another dynamic PET scan was acquired. […] Images were analysed using the freely available software AMIDE, version 1.0.4 (http://amide.sourceforge.net/). […] Uptake was expressed as standard uptake values (SUV), which was calculated according to the following equation: SUV=%uptake of the total tracer dose/volume of the region of interest/bodyweight

[5] = PET, 15 min p.i., MCT rats, baseline scan
[6] = PET, 15 min p.i., SuHx rats, baseline scan
[7] = PET, 15 min p.i., healthy Wistar rats, SB431542 20 mg kg^−1 30 min prior
[8] = PET, 15 min p.i., healthy Wistar rats, baseline
[9] = PET, 15 min p.i., healthy Wistar rats, cyclosporine A 50 mg kg^−1 30 min prior
[10] = PET, 15 min p.i., healthy Wistar rats, cyclosporine A + SB431542
[11] = PET, 15 min p.i., healthy Wistar rats

| Compound | Binding to MCT-exposed lungs compared with control lungs (ALK5 [1]) [times] | Binding to SuHx-exposed lungs compared with control lungs (ALK5 [1]) [times] | Retention in healthy lung tissue [2] [% ID·g^−1] | Intact tracer ([3]; 15 min p.i.) [%] | In vivo metabolic stability in rats [3] | Lung uptake in MCT-exposed rats compared with control group (ALK5 [4]; PET, 15 min p.i.) [fold] | Lung uptake in SuHx rats compared with control group (ALK5 [4]; PET, 15 min p.i.) | Uptake in the lungs (ALK5 [4]; [5]) [SUV] | Uptake in the lungs (ALK5 [4]; [6]) [SUV] | Uptake in the lungs (ALK5 [4]; [7]) [SUV] | Uptake in the lungs (ALK5 [4]; [8]) [SUV] | Uptake in the lungs (ALK5 [4]; [9]) [SUV] | Uptake in the lungs (ALK5 [4]; [10]) [SUV] | Difference in lung uptake between control group and diseased animals after 15 min (ALK5 [4]; PET) | further results |
| --- | --- | --- | --- | --- | --- | --- | --- | --- | --- | --- | --- | --- | --- | --- | --- |
| Cc1csc(-c2nc(CN[11C](=O)OCC(C)C)[nH]c2-c2ccc3ncsc3c2)n1 [[^11C]LR111] | 1.5 | 3.2 | 0.45 ± 0.03 | 74 ± 5 | moderately stable | 1.1 | similar | 1.10 ± 0.25 | 1.04 ± 0.13 | 0.85 ± 0.12 | 1.03 ± 0.07 | 0.85 ± 0.19 | 1.00 ± 0.32 | no difference | Tracer binding when SB431542 was added (ALK5 [1]; SB431542 94 µM): could be blocked; Intact tracer ([3]; 60 min p.i.): 46 ± 2% |
| Cc1cccc(-c2[nH]c(CNc3ccccc3[18F])nc2-c2ccc3ncnn3c2)n1 [[^18F]EW-7197, N-((4-(1,2,4 triazolo 1,5-apyridin-6-yl)-5-(6-methylpyridin-2-yl)-1H-imidazol-2-yl)methyl)-2-fluoroaniline] | 1.2 | 1.2 | 0.56 ± 0.07 | 55 ± 16 | moderately stable | 1.4 | 2.5 fold | 0.81 ± 0.15 | 1.47 ± 0.47 | 0.44 ± 0.12 | 0.59 ± 0.10 | 0.90 ± 0.18 | 0.72 ± 0.21 | no difference | Retention in bone [2]: 0.21 ± 0.02 % ID·g^−1; Intact tracer ([3]; 45 min p.i.): 23 ± 5%; Blocking of lung uptake with SB431542 in PET scans (ALK5 [4]; PET images, SB431542 20 mg kg^−1): could be blocked; Lung accumulation with cyclosporine A and SB431542 relative to baseline (ALK5 [4]; [11]): 1.2 fold; Lung accumulation with cyclosporine A relative to baseline (ALK5 [4]; [11]): 1.5 fold; Substrate for P-gp (P-gp): substrate for P-gp |
